Laboratory results from patent US20130150327A1, “COMPOSITION FOR PREVENTING HAIR LOSS OR STIMULATING HAIR GROWTH” (Biopid Corporation, priority 2010, published 2013).

What was measured:
[1] = tested on: mice with DNFB-induced allergic dermatitis; assay: Animal Test 1: hair follicle growth in back skin tissue of mice with DNFB-induced allergic dermatitis; type: in vivo, mouse; settings: comparators: Tacrolimus ointment (FIG. 5), 0.1% dexamethasone in ethanol (FIG. 6), twice a day, 10 days
From the text: In order to prepare animal models with an atopic dermatitis, or a contact dermatitis and allergic dermatitis, After 1 week of sensitizing with DNFB, DNFB was applied to the backs of mice total 10 times per 2 weeks to induce an artificial allergic dermatitis. […] Since applying DNFB five times, the composition of the present invention, Tacrolimus ointment (trade name, Protopic, Astella Pharma Korea, Inc.), and dexamethasone (Sigma Chem. Co. USA, 0.1% solution dissolved in ethanol) were applied to the backs of mice occurred with inflammation twice a day in the amount of 60 ml, respectively. At 10 days after applying, the mice tissues were collected to test experiments.

C3H/HeNCrljBgi mice = assay: Animal Test 3: organic acid effect and soy extracted phospholipid effect, hair growth area; type: in vivo, mouse; settings: 2.5 weeks, twice a day, phospholipids 20 mg/ml, minoxidil 5% applied to all groups except Group 1 30 minutes before the composition
Method: In addition, the composition was prepared by using soy lecithin (phospholipid extracted from soy, #86015-1201, Junsei Chemical, Japan), and then effect of the composition on hair growth was compared. C3H/HeNCrljBgi species of 7 ages of weeks (Orient Bio, Sungnam, Korea) were purchased as the experimental mice, and then used for the test. […] The composition of the present invention was applied for 2.5 weeks, and 60 ml of the composition was applied on the backs of the hairs-removed mice twice a day. The concentration of the applied phospholipids was 20 mg/ml. As a measurement of hair growth in the mice, the pictures of the mice of each experimental group were taken, respectively, and then the ratio of the hair growth area in the hairs-removed area was calculated.

SMILES | hair follicle growth in mice tissues [1] | Hair growth area (ratio of the hair growth area in the hairs-removed area) (C3H/HeNCrljBgi mice)
C=CC[C@@H]1/C=C(\C)C[C@H](C)C[C@H](OC)[C@H]2O[C@@](O)(C(=O)C(=O)N3CCCC[C@H]3C(=O)O[C@H](/C(C)=C/[C@@H]3CC[C@@H](O)[C@H](OC)C3)[C@H](C)[C@@H](O)CC1=O)[C@H](C)C[C@@H]2OC [Tacrolimus, tacrolimus] | new hair follicles were formed | 
Nc1cc(N2CCCCC2)nc(N)[n+]1[O-] [Minoxidil, minoxidil] |  | 10.2
